Data set [1] is described as follows: Pharmacokinetics test (dogs), fasted and fed, Experimental Example 4. It counts as in vivo, male beagle dogs. The conditions noted are these: for AUC0-10 h / Cmax: oral, 50 mg as mirabegron, plasma. The procedure: The rates of decrease of Cmax and AUC are calculated by the following equations:
Rd(Cmax)=[1−Cmax(Fed)/Cmax(Fasted)]×100
Rd(AUC)=[1−AUC(Fed)/AUC(Fasted)]×100
Rd(Cmax): Rate of decrease of Cmax (%) Cmax(Fed): Cmax in administration after food intake Cmax(Fasted): Cmax in administration in the fasted state Rd(AUC): Rate of decrease of AUC (%) AUC(Fed): AUC in administration after food intake AUC(Fasted): AUC in administration in the fasted state
The resulting suspension was orally administered to male beagle dogs using a sonde in a fasted state (Fasted) or after 30 minutes from the intake of a meal (Fed), and the drug concentration in the plasma was measured after predetermined periods of time. As the meal, 50 g of meat feed was used.

Data set [2] is described as follows: Stability of stored suspension by dissolution test, Experimental Example 5. It counts as physicochemical. The conditions noted are these: vs before storage. The procedure:
The expression “the dissolution or leakage of mirabegron is reduced or inhibited” as used herein means when the pharmaceutical composition of the present invention, which was dispersed in a solvent and has been stored, is subjected to a dissolution test in accordance with the dissolution test, method 2 (paddle method) described in the Japanese Pharmacopoeia, using 900 mL of an appropriate test solution (for example, the second fluid (JP2) described in the dissolution test of the Japanese Pharmacopoeia), for example, at a paddle rotation speed of 50-200 rpm, the change in dissolution rate is 15% or less at the maximum in comparison with the value before the storage. The change in dissolution rate is 10% or less in another embodiment, 5% or less in still another embodiment, and 3% or less in still another embodiment.
These bottles were allowed to stand in a cool place (5° C.) or under room temperature conditions for a month. The xanthan gum solution was prepared by adding xanthan gum to water at a concentration of 1 W/W % while stirring. After the storage, each suspension (25 mg as the amount of mirabegron) was used to carry out a dissolution test in accordance with the dissolution test, method 2 (paddle method) described in the Japanese Pharmacopoeia. As the test solution, 900 mL of the second fluid (JP2) described in the disintegration test of the Japanese Pharmacopoeia was used. […]

A short description of data set [3]: Drug concentration (solubility) in supernatant, Experimental Example 1. The conditions noted are these: shaken at room temperature for 24 hours, 150 mg as mirabegron; for solubility thermodynamic at 24 h: thermodynamic from solid. It counts as physicochemical. The procedure:
The drug concentration (solubility) of each compound to be assayed was measured in accordance with the following method.
After the shaking, the mixtures were centrifuged at 3000 rpm for 15 minutes, and the drug concentration in each supernatant was measured.

The nature of data set [4]: Dissolution test, paddle method, JP2, 50 rpm, Experimental Example 3. The settings on record: 900 mL JP2, paddle 50 rpm. It counts as physicochemical. The procedure: The acid addition salts of the present invention prepared in Examples 4 and 5 (25 mg as the amount of mirabegron) were used to carry out a dissolution test in accordance with the dissolution test, method 2 (paddle method) described in the Japanese Pharmacopoeia. As the test solution, 900 mL of the second fluid (JP2) described in the disintegration test of the Japanese Pharmacopoeia was used. The paddle rotation speed was 50 rpm. The same dissolution test was carried out using the mixtures prepared in Comparative Examples 2 to 5.

[5] abbreviates: in comparison with the fasted state.

Values after ≈ are worked out from the molar mass of the structure shown.

As to `CCCCCCCCCCCCOS(=O)(=O)O.CCCCCCCCCCCCOS(=O)(=O)O.Nc1nc(CC(=O)Nc2ccc(CCNC[C@H](O)c3ccccc3)cc2)cs1` [Example 1], in data set [1] (Fasted), the AUC0-10 h amounted to 1027 ± 208 ng·h/mL and the Cmax (as a rule, the highest concentration seen after dosing) is on record as 295 ± 166 ng/mL. For the same molecule, in data set [1] (Fed (30 minutes after meal)), the AUC0-10 h is 833 ± 122 ng·h/mL and the Cmax is listed as 229 ± 86 ng/mL. Also, in data set [1] (setting [5]), the “rate of decrease of AUC in the fed state” value was 19% and the “rate of decrease of Cmax in the fed state” value amounted to 22%. For the same molecule, the “change in dissolution rate at the maximum” value in data set [2] (suspension in xanthan gum solution stored at room temperature for a month) was 0.8%. Also, in data set [2] (suspension in xanthan gum solution stored in a cool place (5° C.) for a month), the “change in dissolution rate” value is “no change in dissolution rate was observed”.
Consider `CCCCCCCCCCCCCCOS(=O)(=O)O.CCCCCCCCCCCCCCOS(=O)(=O)O.Nc1nc(CC(=O)Nc2ccc(CCNC[C@H](O)c3ccccc3)cc2)cs1` [Example 2], for which the “Drug concentration in supernatant” value was 19000 ng/mL in data set [3] (10^−1 mol/L HCl), 30000 ng/mL in data set [3] (10^−3 mol/L HCl) and 10000 ng/mL in data set [3] (Purified water).
As for `CCCCCCCCCCCCCCCCOS(=O)(=O)O.CCCCCCCCCCCCCCCCOS(=O)(=O)O.Nc1nc(CC(=O)Nc2ccc(CCNC[C@H](O)c3ccccc3)cc2)cs1` [Example 3], the figures for the “Drug concentration in supernatant” value in data set [3] (10^−1 mol/L HCl), in data set [3] (10^−3 mol/L HCl) and in data set [3] (Purified water) were 64000 ng/mL, 21000 ng/mL and 4000 ng/mL, respectively.
On to `CCCCCCCCCCCCOS(=O)(=O)O.CCCCCCCCCCCCOS(=O)(=O)O.Nc1nc(CC(=O)Nc2ccc(CCNCC(O)c3ccccc3)cc2)cs1` (stereo not drawn) [Example 4], for which the Dissolution rate in data set [4] (2 min.) was 5.4%; in data set [4] (15 min.), 14.4%.
Take `CCCCCCCCCCCCOS(=O)(=O)O.Nc1nc(CC(=O)Nc2ccc(CCNCC(O)c3ccccc3)cc2)cs1` (stereo not drawn) [Example 5]: the Dissolution rate is 12.8% in data set [4] (2 min.) and 41.3% in data set [4] (15 min.).
As to `Nc1nc(CC(=O)Nc2ccc(CCNC[C@H](O)c3ccccc3)cc2)cs1` [Mirabegron, (R)-2-(2-aminothiazol-4-yl)-4′-{2-[(2-hydroxy-2-phenylethyl)amino]ethyl}acetanilide], the thermodynamic solubility (commonly solubility found after equilibrating the solid with the medium) at 24 h in data set [3] (10^-1 mol/L hydrochloric acid, simulated gastric fluid, 10^−1 mol/L HCl) was 12900 µg/mL (≈ 32600 µM); in data set [3] (10^-3 mol/L hydrochloric acid, aqueous buffer, 10^−3 mol/L HCl), 501 µg/mL (≈ 1260 µM); in data set [3] (Purified water), 116 µg/mL (≈ 293 µM).
